From patent EP4527386A1, “ANTI-CANCER PHARMACEUTICAL COMPOSITION COMPRISING REGORAFENIB” (Eberhard-Karls-Universität Tübingen Universitätsklinikum, priority 2023, dated 2025)

Experiments:
glioma cell lines [1] = test: 72-hour acute cytotoxicity synergy assay in combination with regorafenib (ZIP synergy score); assay type: cell-based
Procedure: The combined inhibition of a resistance mechanism or a synthetic lethal interactor with regorafenib treatment should enhance the effect of regorafenib alone. Therefore, drugs targeting the different identified gene products were used in acute cytotoxicity synergy assays in combination with regorafenib to analyze the synergistic effect of drug combinations. Each of the 15 drugs was tested in a 72-hour acute cytotoxicity synergy assay in combination with regorafenib on six glioma cell lines in two independent runs. The calculated ZIP synergy score for each combination indicates if a combination is synergistic, the higher the score the stronger is the synergism. For the heatmaps shown in Fig. 3 the synergy scores were normalized within each cell line taking the highest synergy score detected in this cell line as 100% and a synergy score of 0 as 0%. For each target shown here identified in the CRISPR/Cas9 screens, the inventors detected a synergistic effect of the drug combination (for at least one drug when several drugs for the same target were tested).

glioma cell lines [2] = test: clonogenic survival assay; assay type: cell-based; conditions: combination with regorafenib vs regorafenib monotherapy
SMA560 cells = test: in vivo glioma model, intracranially transplanted SMA560 cells; conditions: VM/Dk mice intracranially transplanted with SMA560 cells; treated for three weeks; experiment stopped at day 120; solvent control 58 days
Procedure: For drugs targeting Bcl2 family members (navitoclax, venetoclax), MEK1/MAP2K1 (selumetinib, trametinib), integrins (cilengitide), and ARAF (sorafenib) further assays were performed to analyze the synergistic effect in combination with Regorafenib. […] The inventors extracted primary cells from glioblastoma tissue to test our drug combinations ex vivo. Analyzing the combination effect on cell viability of regorafenib and navitoclax on four glioblastoma primary cultures the observed effect of the combination treatment was in each model synergistic compared to the predicted effect calculated from both monotherapies (Figs. 4 E and F). The combination of navitoclax and regorafenib was further validated in vivo in VM/Dk mice intracranially transplanted with SMA560 cells (data not shown). The mice were treated either with the drug combination, regorafenib, or navitoclax monotherapies, or a solvent control for three weeks. Time until onset of neurological symptoms was observed. The solvent control group reached its median after 58 days, navitoclax monotherapy after 60 days, and regorafenib monotherapy after 67 days.

Compound | synergistic effect in acute cytotoxicity synergy assays (ZIP synergy score) (glioma cell lines [1]) | number of clones in clonogenic survival assays, combination treatment compared with regorafenib monotherapy (glioma cell lines [2]) | Time until onset of neurological symptoms (median) (SMA560 cells)
CC1(C)CCC(c2ccc(Cl)cc2)=C(CN2CCN(c3ccc(C(=O)NS(=O)(=O)c4ccc(N[C@H](CCN5CCOCC5)CSc5ccccc5)c(S(=O)(=O)C(F)(F)F)c4)cc3)CC2)C1 [navitoclax] | synergistic effects | significantly reduced numbers of clones | 60 days
CNC(=O)c1cc(Oc2ccc(NC(=O)Nc3ccc(Cl)c(C(F)(F)F)c3)c(F)c2)ccn1 [regorafenib] |  |  | 67 days
CC1(C)CCC(CN2CCN(c3ccc(C(=O)NS(=O)(=O)c4ccc(NCC5CCOCC5)c([N+](=O)[O-])c4)c(Oc4cnc5[nH]ccc5c4)c3)CC2)=C(c2ccc(Cl)cc2)C1 [venetoclax] | synergistic effects |  | 
